The record followed here is patent US4500526A, “Cephalosporin derivatives” (Bristol-Myers Company, priority 1983, dated 1985).

In series [1] the test system is S. aureus Smith. Put plainly: Median protective dose in infected mice. It is filed as in vivo. As to conditions: Staphylococcus aureus, im, immediately after intraperitoneal challenge, read-out: PD50. The procedure: (§1) The median protective dose (PD50) of some of the preferred compounds against various microorganisms was determined in mice by intramuscular administration of the test compound immediately after an intraperitoneal bacterial challenge.

For series [2], the system named is E. coli Juhl. Put plainly: Median protective dose in infected mice. It is filed as in vivo. As to conditions: Escherichia coli, im, immediately after intraperitoneal challenge, read-out: PD50. As to the method:
as §1

The test system of series [3] is M. morganii (1 strain), Ent. cloacae (2 strains) and Ser. marcescens (2 strains). Put plainly: MIC, two-fold serial agar dilution, group (G-)-II. It is filed as cell-based. The conditions noted are these: read-out: Geometric Mean of MIC. As to the method: (§2) In the primary evaluation of the compounds of this invention, the Minimum Inhibitory Concentrations (MIC's) of the compounds were determined by the two-fold serial agar dilution method in Mueller-Hinton agar against 32 strains of test organisms in six groups. The sample weights of the test compounds were adjusted according to the purity of each compound, so as to give a more accurate measure of the MIC's.
(G-)II: M. morganii (1 strain), Ent. cloacae (2 strains) and Ser.
Background: Agar dilution tests growth on a series of plates holding different concentrations.

The test system of series [4] is Ps. aeruginosa (6 strains). Briefly: MIC, two-fold serial agar dilution, group (G-)-III. Format: cell-based. The conditions noted are these: Pseudomonas aeruginosa, read-out: Geometric Mean of MIC. The procedure: as §2
(G-)III: Ps. aeruginosa (6 strains)

A short description of series [5]: Mouse blood levels after single intramuscular injection. It is filed as in vivo, mice. The conditions noted are these: in vivo, im, 20 mg/kg. The procedure:
The absorption of some of the preferred compounds were determined in mice following a single intramuscular injection of the test compound (dissolved in 0.1M phosphate buffer; pH 7) at a dosage of 20 mg/kg. Blood samples were collected from the orbital sinuses into heparinized capillary tubes and assayed in Nutrient Agar (pH 6.6) using E. coli Ess-22-31 as the test organism. The blood levels at various time intervals, the half-life values (t1/2) and the areas under the curve (AUC) are shown in Table 2.

For series [6], the system named is Penicillinsensitive S. aureus (5 strains). Put plainly: MIC, two-fold serial agar dilution, group (G+)-Ia. It is filed as cell-based. As to conditions: Staphylococcus aureus, read-out: Geometric Mean of MIC. As to the method:
as §2
(G+)Ia: Penicillinsensitive S. aureus (5 strains)

For series [7], the system named is Cephalothinresistant E. coli (3 strains) and Kl. pneumoniae (3 strains). Briefly: MIC, two-fold serial agar dilution, group (G-)-Ib. Format: cell-based. The conditions noted are these: Escherichia coli, read-out: Geometric Mean of MIC. As to the method: as §2
(G-)Ib: Cephalothinresistant E. coli (3 strains) and Kl. pneumoniae (3

Series [8] has as its system Penicillinresistant S. aureus (5 strains). Briefly: MIC, two-fold serial agar dilution, group (G+)-Ib. As to conditions: Staphylococcus aureus, read-out: Geometric Mean of MIC. Format: cell-based. The procedure: as §2
(G+)Ib: Penicillinresistant S. aureus (5 strains)

Series [9] concerns Cephalothinsensitive E. coli (2 strains), Kl. pneumoniae (1 strain) and Pr. mirabilis (2 strains). Briefly: MIC, two-fold serial agar dilution, group (G-)-Ia. It is filed as cell-based. As to conditions: 5 strains, Mueller-Hinton agar, read-out: Geometric Mean of MIC. As to the method:
as §2
(G-)Ia: Cephalothinsensitive E. coli (2 strains), Kl. pneumoniae (1
strain) and Pr. mirabilis (2 strains)

Where [10] appears, read: (G-)-II, 5 strains, Mueller-Hinton agar.
Setting [11] is: (G-)-III, 6 strains, Mueller-Hinton agar.
Setting [12] is: (G+)-Ia, 5 strains, Mueller-Hinton agar.
Setting [13] is: (G+)-Ib, 5 strains, Mueller-Hinton agar.

In brackets after ≈: the same amount, converted by molar mass. Read-outs that look alike come from different tables or passages of the source.

Broadly, the MIC is the least concentration at which growth counts as inhibited. For orientation: AUC means concentration integrated over time. The low end stands for less exposure, the high end for more exposure. In general, half-life refers to the time in which the quantity being followed falls by half. A lower half-life goes with fast loss. For `CO/N=C(\C(=O)NC1C(=O)N2C(C(=O)[O-])=C(C[n+]3ccc4sc(C(N)=O)nc4c3)CS[C@H]12)c1csc(N)n1` (stereo partly shown) [Ix, 7-[(Z)-2-(2-Aminothiazol-4-yl)-2-methoxyiminoacetamido]-3-(2-carbamoyl-5-thiazolo[4,5-c]pyridinio)methyl-3-cephem-4-carboxylate], the ED50 in series [1] came out at 1.5 mg/kg. The ED50 in series [2] is 0.013 mg/kg. In [3] (setting [10]), the MIC worked out at 0.39 µg/mL (≈ 0.679 µM). The MIC in series [4] (setting [11]) amounted to 2.8 µg/mL (≈ 4.87 µM). For the same compound, in [5], the AUC worked out at 19000 ng·h/mL, the concentration at 10 min was 20000 ng/mL, the concentration at 20 min is 18000 ng/mL and the concentration at 0.5 h turned out to be 20000 ng/mL. Moreover, in series [5], the concentration at 40 min stood at 13000 ng/mL, the concentration at 50 min was found to be 11000 ng/mL, the concentration at 1 h came out at 7000 ng/mL and the concentration at 1.5 h is 4200 ng/mL. Moreover, in series [5], the concentration at 2 h was determined as 2100 ng/mL and the half-life stood at 31 min. Moreover, in [6] (setting [12]), the minimal inhibitory concentration (MIC) was 0.53 µg/mL (≈ 0.922 µM). In addition, in series [7], the MIC turned out to be 0.2 µg/mL (≈ 0.348 µM). Further, in series [8] (setting [13]), the MIC was 0.8 µg/mL (≈ 1.39 µM). Moreover, the MIC in [9] worked out at 0.022 µg/mL (≈ 0.0383 µM).
Consider `CC(C)(O/N=C(\C(=O)NC1C(=O)N2C(C(=O)[O-])=C(C[n+]3ccc4sc(N)nc4c3)CSC12)c1csc(N)n1)C(=O)O` (stereo not shown) [Io, 7-[(Z)-2-(2-Aminothiazol-4-yl)-2-(2-carboxyprop-2-oxyimino)-acetamido]-3-[{5-(2-aminothiazolo[4,5-c]pyridinio)}methyl]-3-cephem-4-carboxylate], for which the MIC is 0.66 µg/mL (≈ 1.07 µM) in [3] (setting [10]); 1.5 µg/mL (≈ 2.42 µM) in [4] (setting [11]); 1.6 µg/mL (≈ 2.59 µM) in series [6]; 0.47 µg/mL (≈ 0.76 µM) in series [7]; 3.8 µg/mL (≈ 6.14 µM) in [8] (setting [13]); 0.023 µg/mL (≈ 0.0372 µM) in series [9].
As for `CO/N=C(\C(=O)NC1C(=O)N2C(C(=O)[O-])=C(C[n+]3ccc4sc(C)nc4c3)CSC12)c1csc(N)n1` (stereo not shown) [Ih, 7-[(Z)-2-(2-Aminothiazol-4-yl)-2-methoxyiminoacetamido]-3-[{5-(2-methylthiazolo[4,5-c]pyridinio)}methyl]-3-cephem-4-carboxylate], the MIC in series [3] came to 0.11 µg/mL (≈ 0.202 µM). For the same compound, the MIC in series [4] (setting [11]) came out at 2.3 µg/mL (≈ 4.22 µM). In series [5], this compound registered an AUC of 8600 ng·h/mL, a concentration at 10 min of 16000 ng/mL, a concentration at 20 min of 10000 ng/mL and a concentration at 0.5 h of 6900 ng/mL. In [5], this compound came in with a concentration at 40 min of 5900 ng/mL, a concentration at 50 min of 4100 ng/mL, a concentration at 1 h of 3000 ng/mL and a concentration at 1.5 h of 790 ng/mL. Further, in [5], the concentration at 2 h turned out to be 130 ng/mL and the half-life worked out at 16 min. The MIC in series [6] (setting [12]) worked out at 0.34 µg/mL (≈ 0.623 µM). In [7], the MIC is 0.058 µg/mL (≈ 0.106 µM). The MIC in [8] (setting [13]) is 0.78 µg/mL (≈ 1.43 µM). In [9], the MIC is 0.007 µg/mL (≈ 0.0128 µM).
As to `CNC(=O)Nc1nc2c[n+](CC3=C(C(=O)[O-])N4C(=O)C(NC(=O)/C(=N\OC)c5csc(N)n5)[C@H]4SC3)ccc2s1` (stereo partly shown) [Ir, 7-[(Z)-2-(2-Aminothiazol-4-yl)-2-methoxyiminoacetamido]-3-[2-(3-methylureido)-5-thiazolo[4,5-c]pyridinio]methyl-3-cephem-4-carboxylate], the MIC in [3] (setting [10]) is 0.52 µg/mL (≈ 0.861 µM); in [4] (setting [11]), 5.2 µg/mL (≈ 8.61 µM); in [6] it was 0.4 µg/mL (≈ 0.663 µM); in series [7] it was 0.46 µg/mL (≈ 0.762 µM); in [8] (setting [13]), 0.8 µg/mL (≈ 1.33 µM); in series [9] it was 0.025 µg/mL (≈ 0.0414 µM).
Regarding `CCO/N=C(\C(=O)NC1C(=O)N2C(C(=O)[O-])=C(C[n+]3ccc4scnc4c3)CSC12)c1csc(N)n1` (stereo not shown) [Ib, 7-[(Z)-2-(2-Aminothiazol-4-yl)-2-ethoxyiminoacetamido]-3-{(5-thiazolo[4,5-c]pyridino)methyl}-3-cephem-4-carboxylate], in series [3], the MIC was 0.32 µg/mL (≈ 0.586 µM). Besides, the minimum inhibitory concentration (MIC) in [4] (setting [11]) was determined as 2.6 µg/mL (≈ 4.77 µM). In series [5], this compound yielded an AUC of 8400 ng·h/mL, a concentration at 10 min of 15000 ng/mL, a concentration at 20 min of 22000 ng/mL and a concentration at 0.5 h of 8400 ng/mL. In series [5], this compound gave a concentration at 40 min of 6100 ng/mL, a concentration at 50 min of 3800 ng/mL, a concentration at 1 h of 920 ng/mL and a concentration at 1.5 h of 680 ng/mL. In [5], this compound displayed a concentration at 2 h of 430 ng/mL and a half-life of 19 min. Further, the MIC in series [6] (setting [12]) came out at 0.42 µg/mL (≈ 0.77 µM). Moreover, the MIC in series [7] was 0.22 µg/mL (≈ 0.403 µM). Moreover, the minimal inhibitory concentration (MIC) in [8] (setting [13]) is 0.96 µg/mL (≈ 1.76 µM). The MIC in series [9] worked out at 0.035 µg/mL (≈ 0.0641 µM).
Turning to `Nc1nc(/C(=N/OCC(=O)O)C(=O)NC2C(=O)N3C(C(=O)[O-])=C(C[n+]4ccc5sc(N)nc5c4)CS[C@H]23)cs1` (stereo partly shown) [Ig, 7-[(Z)-2-(2-Aminothiazol-4-yl)-2-(carboxymethoxyimino)acetamido]-3-(2-amino-5-thiazolo[4,5-c]pyridinio)methyl-3-cephem-4-carboxylate], in series [3], the MIC was 0.1 µg/mL (≈ 0.169 µM). Moreover, the MIC in series [4] worked out at 1.8 µg/mL (≈ 3.05 µM). In [5], this compound came in with an AUC of 15000 ng·h/mL, a concentration at 10 min of 21000 ng/mL, a concentration at 20 min of 17000 ng/mL and a concentration at 0.5 h of 15000 ng/mL. In series [5], this compound gave a concentration at 40 min of 10000 ng/mL, a concentration at 50 min of 7600 ng/mL, a concentration at 1 h of 6300 ng/mL and a concentration at 1.5 h of 1900 ng/mL. In series [5], this compound showed a concentration at 2 h of 840 ng/mL and a half-life of 22 min. For the same compound, the MIC in [6] (setting [12]) stood at 2.1 µg/mL (≈ 3.56 µM). Also, the MIC in [7] turned out to be 0.3 µg/mL (≈ 0.508 µM). Besides, in series [8], the MIC was 3.6 µg/mL (≈ 6.1 µM). For the same compound, the MIC in [9] was determined as 0.0072 µg/mL (≈ 0.0122 µM).
As to `CO/N=C(\C(=O)NC1C(=O)N2C(C(=O)[O-])=C(C[n+]3ccc4sc(SC)nc4c3)CSC12)c1csc(N)n1` (stereo not shown) [Ii, 7-[(Z)-2-(2-Aminothiazol-4-yl)-2-methoxyiminoacetamido]-3-[{5-(2-methylthiothiazolo[4,5-c]pyridinio)}methyl]-3-cephem-4-carboxylate], in series [3] (setting [10]), the MIC is 0.24 µg/mL (≈ 0.415 µM). In addition, the MIC in [4] was 5.5 µg/mL (≈ 9.52 µM). In [5], this compound registered an exposure (AUC) of 6800 ng·h/mL, a concentration at 10 min of 14000 ng/mL, a concentration at 20 min of 10000 ng/mL and a concentration at 0.5 h of 5900 ng/mL. In series [5], this compound showed a concentration at 40 min of 4800 ng/mL, a concentration at 50 min of 2400 ng/mL, a concentration at 1 h of 1500 ng/mL and a concentration at 1.5 h of 250 ng/mL. In series [5], this compound had a concentration at 2 h of less than 100 ng/mL and a half-life of 13 min. Besides, in series [6] (setting [12]), the MIC was 0.23 µg/mL (≈ 0.398 µM). In addition, in [7], the MIC stood at 0.13 µg/mL (≈ 0.225 µM). The MIC in series [8] stood at 0.2 µg/mL (≈ 0.346 µM). Moreover, the MIC in series [9] worked out at 0.025 µg/mL (≈ 0.0433 µM).
Take `CCO/N=C(\C(=O)NC1C(=O)N2C(C(=O)[O-])=C(C[n+]3ccc4sc(N)nc4c3)CSC12)c1csc(N)n1` (stereo not shown) [Ij, 7-[(Z)-2-(2-Aminothiazol-4-yl)-2-ethoxyiminoacetamido]-3-[{5-(2-aminothiazolo[4,5-c]pyridinio)}methyl]-3-cephem-4-carboxylate]: the MIC in series [3] (setting [10]) was 0.24 µg/mL (≈ 0.428 µM); in series [4] (setting [11]) it was 3 µg/mL (≈ 5.35 µM); in [6] (setting [12]), 0.36 µg/mL (≈ 0.642 µM); in [7], 0.17 µg/mL (≈ 0.303 µM); in series [8] (setting [13]), 0.48 µg/mL (≈ 0.856 µM); in [9], 0.02 µg/mL (≈ 0.0357 µM).
